In US9777003B2, “Tricyclic heterocycles as bet protein inhibitors” (Incyte Corporation, priority 2013, dated 2017):
Counter-ions that a name gives are not always drawn.

Key:
BRD4-BD2 = BRD4-BD2 (Homo sapiens (Human), UniProt O60885); assay: BRD4 AlphaScreen assay, BRD4-BD2; format: binding; conditions: biotin-labeled tetra-acetylated histone H4 peptide, 75 min, room temperature, read-out: BRD4 BD-2 enzyme IC50
Procedure: (§1) BRD4-BD1 and BRD4-BD2 assays were conducted in white 384-well polystyrene plate in a final volume of 20 μL for BD1 and 40 μL for BD2. Inhibitors were first serially diluted in DMSO and added to the plate wells before the addition of other reaction components. The final concentration of DMSO in the assay was 1.25% (BD1) and 0.83% (BD2). The assays were carried out at room temperature for 75 min. in the assay buffer (50 mM HEPES, pH 7.4, 100 mM NaCl, 0.05% CHAPS, 0.01% BSA), containing 50 nM Biotin-labeled tetra-acetylated histone H4 peptide (H4Ac4), 3.8 nM (BRD4-BD1, BPS Bioscience #31040) or 20 nM (BRD4-BD2, BPS Bioscience #31041). The reaction followed by the addition of 20 μL of assay buffer supplemented with Streptavidin donor beads (PerkinElmer 6760002) and GSH Acceptor beads (PerkinElmer-AL109C) at 4 μg/mL under reduced light. After plate sealing, the plate was incubated in the dark at room temperature for 75 min. before reading on a PHERAstar FS plate reader (BMG Labtech). IC50 determination was performed by fitting the curve of percent control activity versus the log of the inhibitor concentration using the GraphPad Prism 5.0 software.

BRD4-BD1 = BRD4-BD1 (Homo sapiens (Human), UniProt O60885); assay: BRD4 AlphaScreen assay, BRD4-BD1; format: binding; conditions: biotin-labeled tetra-acetylated histone H4 peptide, 75 min, room temperature, read-out: BRD4 BD-1 enzyme IC50
Procedure: as §1

SMILES	IC50 (BRD4-BD2) [nM]	IC50 (BRD4-BD1) [nM]
Cc1cc2c(cc(NC3CCC(C#N)CC3)c3nnc(C)n32)n1Cc1ccccc1 (single isomer, unassigned) [Example 215 a, 4-[(6-benzyl-1,7-dimethyl-6H-pyrrolo[2,3-e][1,2,4]triazolo[4,3-a]pyridin-4-yl)amino]cyclohexanecarbonitrile Trifluoroacetate Salt]	≤ 100	100 to 1000
Cc1cc2c(cc(N[C@H]3CC[C@@H](C#N)CC3)c3nnc(C)n32)n1Cc1ccccc1 (single isomer, unassigned) [Example 215 b, 4-[(6-benzyl-1,7-dimethyl-6H-pyrrolo[2,3-e][1,2,4]triazolo[4,3-a]pyridin-4-yl)amino]cyclohexanecarbonitrile Trifluoroacetate Salt]	≤ 100	≤ 100
Cc1nnc2ccc3c(ccn3S(=O)(=O)c3ccccc3)n12 [Example 3, 1-methyl-6-(phenylsulfonyl)-6H-pyrrolo[2,3-e][1,2,4]triazolo[4,3-a]pyridine]	100 to 1000	100 to 1000
Cc1cc2c(ccc3nnc(C)n32)n1Cc1ccc(Cl)cc1 [Example 10, 6-(4-chlorobenzyl)-1,7-dimethyl-6H-pyrrolo[2,3-e][1,2,4]triazolo[4,3-a]pyridine]	≤ 100	≤ 100
Cc1cc2c(ccc3nnc(C)n32)n1Cc1ccncc1 [Example 12, 1,7-dimethyl-6-(pyridin-4-ylmethyl)-6H-pyrrolo[2,3-e][1,2,4]triazolo[4,3-a]pyridine]	100 to 1000	100 to 1000
Cc1cc2c(ccc3nnc(C)n32)n1CC1CCCC1 [Example 13, 6-(cyclopentylmethyl)-1,7-dimethyl-6H-pyrrolo[2,3-e][1,2,4]triazolo[4,3-a]pyridine]	≤ 100	100 to 1000
Cc1cc2c(ccc3nnc(C)n32)n1Cc1ccc(F)cc1 [Example 16, 6-(4-fluorobenzyl)-1,7-dimethyl-6H-pyrrolo[2,3-e][1,2,4]triazolo[4,3-a]pyridine]	≤ 100	≤ 100
Cc1ccc(Cn2c(C)cc3c2ccc2nnc(C)n23)cc1 [Example 19, 1,7-dimethyl-6-(4-methylbenzyl)-6H-pyrrolo[2,3-e][1,2,4]triazolo[4,3-a]pyridine]	≤ 100	≤ 100
Cc1cc2c(ccc3nnc(C)n32)n1Cc1ccc2ccccc2n1 [Example 21, 1,7-dimethyl-6-(quinolin-2-ylmethyl)-6H-pyrrolo[2,3-e][1,2,4]triazolo[4,3-a]pyridine]	≤ 100	100 to 1000
CC(=O)Nc1cccc(Cn2c(C)cc3c2ccc2nnc(C)n23)c1 [Example 25, N-{3-[(1,7-dimethyl-6H-pyrrolo[2,3-e][1,2,4]triazolo[4,3-a]pyridin-6-yl)methyl]phenyl}acetamide Trifluoroacetate Salt]	≤ 100	100 to 1000
Cc1cc2c(ccc3nnc(C)n32)n1Cc1cccc(CN2CC(O)C2)c1 [Example 27, 1-(3-((1,7-dimethyl-6H-pyrrolo[2,3-e][1,2,4]triazolo[4,3-a]pyridin-6-yl)methyl)benzyl)azetidin-3-ol bis-trifluoroacetate Salt]	≤ 100	≤ 100
Cc1cc2c(ccc3nnc(C)n32)n1Cc1cccc(CN2CCC2)c1 [Example 28, 6-[3-(azetidin-1-ylmethyl)benzyl]-1,7-dimethyl-6H-pyrrolo[2,3-e][1,2,4]triazolo[4,3-a]pyridine]	≤ 100	≤ 100

The remaining lines, values ahead:

IC50 (BRD4-BD2) [nM]	IC50 (BRD4-BD1) [nM]	SMILES
≤ 100	100 to 1000	Cc1nnc2ccc3c(ccn3Cc3ccccc3)n12 [Example 1, 6-benzyl-1-methyl-6H-pyrrolo[2,3-e][1,2,4]triazolo[4,3-a]pyridine]
≤ 100	≤ 100	Cc1cc2c(ccc3nnc(C)n32)n1Cc1ccccc1 [Example 2, 6-benzyl-1,7-dimethyl-6H-pyrrolo[2,3-e][1,2,4]triazolo[4,3-a]pyridine]
100 to 1000	100 to 1000	Cc1cc2c(ccc3nnc(C)n32)n1CCc1ccccc1 [Example 6, 1,7-dimethyl-6-(2-phenylethyl)-6H-pyrrolo[2,3-e][1,2,4]triazolo[4,3-a]pyridine]
100 to 1000	100 to 1000	Cc1cc2c(ccc3nnc(C)n32)n1Cc1ccccn1 [Example 7, 1,7-dimethyl-6-(pyridin-2-ylmethyl)-6H-pyrrolo[2,3-e][1,2,4]triazolo[4,3-a]pyridine]
≤ 100	100 to 1000	Cc1cc2c(ccc3nnc(C)n32)n1Cc1ccccc1Cl [Example 8, 6-(2-chlorobenzyl)-1,7-dimethyl-6H-pyrrolo[2,3-e][1,2,4]triazolo[4,3-a]pyridine]
≤ 100	≤ 100	Cc1cc2c(ccc3nnc(C)n32)n1Cc1cccc(Cl)c1 [Example 9, 6-(3-chlorobenzyl)-1,7-dimethyl-6H-pyrrolo[2,3-e][1,2,4]triazolo[4,3-a]pyridine]
100 to 1000	100 to 1000	Cc1cc2c(ccc3nnc(C)n32)n1Cc1cccnc1 [Example 11, 1,7-dimethyl-6-(pyridin-3-ylmethyl)-6H-pyrrolo[2,3-e][1,2,4]triazolo[4,3-a]pyridine]
≤ 100	≤ 100	Cc1cc2c(ccc3nnc(C)n32)n1Cc1ccccc1F [Example 14, 6-(2-fluorobenzyl)-1,7-dimethyl-6H-pyrrolo[2,3-e][1,2,4]triazolo[4,3-a]pyridine]
≤ 100	≤ 100	Cc1cc2c(ccc3nnc(C)n32)n1Cc1cccc(F)c1 [Example 15, 6-(3-fluorobenzyl)-1,7-dimethyl-6H-pyrrolo[2,3-e][1,2,4]triazolo[4,3-a]pyridine]
≤ 100	≤ 100	Cc1ccccc1Cn1c(C)cc2c1ccc1nnc(C)n12 [Example 17, 1,7-dimethyl-6-(2-methylbenzyl)-6H-pyrrolo[2,3-e][1,2,4]triazolo[4,3-a]pyridine]
≤ 100	≤ 100	Cc1cccc(Cn2c(C)cc3c2ccc2nnc(C)n23)c1 [Example 18, 1,7-dimethyl-6-(3-methylbenzyl)-6H-pyrrolo[2,3-e][1,2,4]triazolo[4,3-a]pyridine]
≤ 100	100 to 1000	Cc1cc2c(ccc3nnc(C)n32)n1Cc1cccc(C#N)c1 [Example 20, 3-[(1,7-dimethyl-6H-pyrrolo[2,3-e][1,2,4]triazolo[4,3-a]pyridine-6-yl)methyl]benzonitrile]
≤ 100	100 to 1000	COc1cccc(Cn2c(C)cc3c2ccc2nnc(C)n23)c1 [Example 22, 6-(3-methoxybenzyl)-1,7-dimethyl-6H-pyrrolo[2,3-e][1,2,4]triazolo[4,3-a]pyridine]
≤ 100	≤ 100	Cc1cc2c(ccc3nnc(C)n32)n1Cc1cccc(O)c1 [Example 23, 3-[(1,7-dimethyl-6H-pyrrolo[2,3-e][1,2,4]triazolo[4,3-a]pyridin-6-yl)methyl]phenol]
≤ 100	≤ 100	Cc1cc2c(ccc3nnc(C)n32)n1Cc1cccc(CO)c1 [Example 26, {3-[(1,7-dimethyl-6H-pyrrolo[2,3-e][1,2,4]triazolo[4,3-a]pyridin-6-yl)methyl]phenyl}methanol Trifluoroacetate Salt]
≤ 100	100 to 1000	Cc1cc2c(ccc3nnc(C)n32)n1Cc1cccc(C(N)=O)c1 [Example 30, 3-((1,7-dimethyl-6H-pyrrolo[2,3-e][1,2,4]triazolo[4,3-a]pyridin-6-yl)methyl)benzamide Trifluoroacetate Salt]
